Test results taken from patent US5049372A, “Anticancer activities in a host by increasing blood and plasma adenosine 5'-triphosphate (ATP) levels” (priority 1988, dated 1991).

Assays:
[1] = system: CT26 tumors; assay: Growth inhibition of s.c. footpad CT26 tumors in CB6F1 mice by daily i.p. adenine nucleotides (Table 1); format: in vivo, mouse; details: for Effectiveness of concentrations lower than 50 mM against CT26 footpad tumors: daily i.p. in volumes of 1.4-1.8 ml of saline, CB6F1 mice; for Effect of delaying start of treatment on tumor growth inhibition: start delayed until tumors palpable (6-10 days after inoculation); for Inhibition of tumor growth (% of saline-treated): 1 ml of 25 mM, based on tumor weights
Procedure: (§1) The tumor cell lines employed were CT26, a mouse undifferentiated, aggressive colon carcinoma, and CAPAN-1, a well-differentiated human pancreatic adenocarcinoma. […] The cells are shown to be free of Mycoplasma contamination. Cells are cultured at 37° C. in a humidified atmosphere of 5% CO2 /95% air in MEM supplemented with antibiotics (100 units of penicillin per ml and 100 μg streptomycin per ml), L-glutamine (2 mM), non-essential amino acids (0.1 mM), sodium pyruvate (1 mM), and 10% fetal bovine serum.
(§2) In the tests, females and males CB6F1 mice (a standard F1 hybrid of BALB/C and C57BL/6) obtained from Jackson Laboratories, Bar Harbor, Maine and athymic outbred NCr nu/nu mice (males and females) from the Department of Radiation Medicine, Massachusetts General Hospital, Boston, Mass. 02114 are used. All the mice are kept for at least two weeks before inoculation of the tumors and the start of treatment and are 7-9 weeks old (CB6F1) or 6-7 weeks old (athymic nu/nu) at the start of the procedure. Animals weigh 20-25 g (females) or 23-28 g (males), are housed 5-12 per cage, and have ad libitum access to food and water.
Tumor cells are removed from subconfluent cultures by a mild trypsin-EDTA treatment, the cell pellet is washed once with MEM without serum and the cells are suspended at the desired cell numbers in PBS (phosphate-bufferedsaline, 8 g NaCl, 0.2 g KCl, 1.15 g Na2 HPO4.7H2 O, and 0.2 g KH2 PO4 per liter). Cell suspensions are shown to be at least 90% viable by trypan blue exclusion. Mice are injected subcutaneously in the right hind footpad with tumor cells suspended in 50 μl of PBS. The regular protocol (unless otherwise stated) consists of daily i.p. injections of 1 ml of 0.85% NaCl solution or 1 ml of 50 mM of AMP, ADP, or ATP in 0.85% NaCl (from stock solutions adjusted to pH 6.2) starting one day after tumor inoculation and given for ten consecutive days.
Injections are administered with 30 gauge needles and the mice are lightly anesthetized with ether. The mice are weighed before the start of treatment and once a week during and after treatment. After the tumors become palpable, tumor sizes are determined every three days. The animals are sacrificed, tumors are excised and weighed before they reach 10% of the animals' weight.
The growth inhibitory properties of adenine nucleotides against CT26 murine colon carcinoma, which are inoculated s.c. in the hind footpad of CB6F1 mice, are illustrated in Table 1 hereinbelow. […] No significant differences between males and females are observed either in the rate of tumor growth or in the tumor's response to adenine nucleotides treatment.

[2] = system: CT26 tumors; assay: Arrest of growth of CT26 tumors in CB6F1 mice (Table 2); format: in vivo, mouse; details: experiment 1; CB6F1, 10 F; 0.5 × 10^4 cells; 5 weeks; 1 ml of 50 mM i.p.
Procedure: as §1
as §2, with “water. […]” for “water.”
Injections are administered with 30 gauge needles and the mice are lightly anesthetized with ether. […] After the tumors become palpable, tumor sizes are determined every three days. […]

[3] = ATP levels in mouse blood (total cellular) and plasma after i.p. injection (Table 3); format: in vivo; details: for Blood ATP levels: total cellular
Procedure: The mice are anesthetized with ether during the procedure. The plasma is prepared by immediate centrifugation of the blood in a Beckman microfuge (30 sec at 8000 xg). Blood (20 μl) or plasma (100 μl) aliquots are added to 1 ml of cold 7% trichloroacetic acid. […] The determination of ATP levels in the extracts is performed by bioluminometry (luciferinluciferase) using a Turner Designs Bioluminescence Photometer.

[4] = Inhibition of host weight loss (cancer cachexia) in CT26 tumor-bearing mice; format: in vivo, mouse; details: FIG. 3; treatment initiated day 1 (A), day 5 (B) or day 9 (C)
Procedure: A further series of tests are conducted whereby tumors are inoculated by injections of 2.5×10^5 CT26 cells (over 90% viability) in 50 μl of phosphate-buffered saline into the right hind footpad of CB6F1 mice. The treatments were initiated at a variety of times after inoculation of the tumors. The injection schedules started either 1 or 5 days after tumor inoculation when none of the tumors are palpable or when the tumors are clearly palpable (average calculated weight of 100 mg), which occur in 100% of the inoculated mice after 8-11 days. Mice are randomized, divided into groups, and injected daily with 2.2 ml of saline, adenosine, AMP, or ATP (compounds are in sterile saline solutions at concentrations of 25 mM with AMP and ATP solutions adjusted to pH 6.2). Injections are administered intraperitoneally with 30 gauge needles and the mice are lightly anesthetized with […]. The mice are weighed and tumor sizes measured before the start of the treatment schedule and every three days during and after the treatment schedule. These determinations are performed before injections during the treatment period.
In particular, see FIG. 2. FIG. 2 illustrates inhibition of tumor growth (---) and host weight loss (-) in tumor-bearing mice by treatment with adenine nucleotides. Mice (CB6F1, 8 week old males) bearing palpable CT26 footpad tumors (on day 9 after tumor inoculation) are treated with saline (.smallcircle.), adenosine (o), AMP (Δ), or ATP (.quadrature.) as described herein. An untreated group is also included (x). Arrows indicate days of injection.
FIG. 3 further illustrates inhibition of host weight loss in tumor-bearing animals by treatment with adenine nucleotides. Mice (CB6F1, males, 7 weeks old, in A, 10 weeks old in B, C) are inoculated with CT26 tumors and daily treatments (for 10 consecutive days) with saline (.smallcircle.), adenosine (o), AMP (Δ), or ATP (.quadrature.) are initiated 1 day (A), 5 days (B), or 9 days after tumor inoculation (when all the tumors were palpable) (C). Arrows indicate days of injection. Experimental procedures were outlined in the text.

[5] = experiment 3, 12 M per group, 0.5 × 10^6 cells, day 13, 1 ml of 50 mM i.p. daily
[6] = experiment 4, 11 F per group, 0.5 × 10^6 cells, day 14, 1 ml of 50 mM i.p. daily
[7] = experiment 5, 12 F per group, 0.5 × 10^5 cells, day 16, 1 ml of 50 mM i.p. daily
[8] = experiment 6, 10 F per group, 0.5 × 10^5 cells, day 18, 1 ml of 50 mM i.p. daily (Ap4A 10 mM)
[9] = experiment 7, 10 F per group, 0.1 × 10^5 cells, day 22, 1 ml of 50 mM i.p. daily
[10] = experiment 7, 10 F per group, 0.1 × 10^5 cells, day 22, 1 ml of 50 mM i.p. daily, included one complete cure
[11] = CB6F1, 1 hour after i.p. 1 ml of 50 mM
[12] = CB6F1, 5 hours after i.p. 1 ml of 50 mM
[13] = athymic nu/nu, 1 hour after i.p. 1 ml of 50 mM
[14] = athymic nu/nu, 4 hours after i.p. 1 ml of 50 mM
[15] = experiment 1, 10 F per group, 0.5 × 10^6 cells, day 15, 1 ml of 25 mM i.p. daily
[16] = experiment 2, 10 M per group, 0.5 × 10^6 cells, day 15, 1 ml of 25 mM i.p. daily

Row | SMILES | Effectiveness of concentrations lower than 50 mM against CT26 footpad tumors [1] | Tumor diameter [1, 5] | Tumor weight [1, 5] | Tumor diameter [1, 6] | Tumor weight [1, 6] | Tumor diameter [1, 7] | Tumor weight [1, 7] | Tumor diameter [1, 8] | Tumor weight [1, 8] | Tumor diameter [1, 9] | Tumor weight [1, 10] | Most effective pH of the i.p. solution for inhibition of tumor growth [1] | Effect of delaying start of treatment on tumor growth inhibition [1] | Arrested tumors/implanted tumors [2] | Plasma ATP levels [3, 11] | Blood ATP levels [3, 11] | Plasma ATP levels [3, 12] | Blood ATP levels [3, 12] | Plasma ATP levels [3, 13] | Blood ATP levels [3, 13] | also measured
1 | Nc1ncnc2c1ncn2[C@@H]1O[C@H](COP(=O)(O)O)[C@@H](O)[C@H]1O [AMP, adenosine 5'-monophosphate] | as effective | 1.2 ± 0.2 cm | 0.65 ± 0.21 g | 1.0 ± 0.3 cm | 0.88 ± 0.31 g | 0.6 ± 0.2 cm | 0.41 ± 0.18 g | 0.8 ± 0.2 cm | 0.56 ± 0.21 g | 0.9 ± 0.5 cm | 0.51 ± 0.28 g | 5.5-6.2 | without any significant effects on the magnitude of tumor growth inhibition | 2/10 | 1.75 ± 0.36 µM | 1.23 ± 0.21 mM | 1.69 ± 0.19 µM | 1.36 ± 0.24 mM | 2.17 ± 0.36 µM | 1.87 ± 0.46 mM | Plasma ATP levels [3, 14]: 1.97 ± 0.41 µM; Blood ATP levels [3, 14]: 2.35 ± 0.67 mM; Deaths before stated day after tumor inoculation [4]: No deaths occurred before day 19 (A) or day 25 (B,C)
2 | Nc1ncnc2c1ncn2[C@@H]1O[C@H](COP(=O)(O)OP(=O)(O)OP(=O)(O)O)[C@@H](O)[C@H]1O [ATP, adenosine 5'-triphosphate] | as effective | 1.2 ± 0.2 cm | 0.70 ± 0.18 g | 1.0 ± 0.2 cm | 0.84 ± 0.23 g | 0.5 ± 0.1 cm | 0.38 ± 0.10 g | 0.8 ± 0.1 cm | 0.51 ± 0.18 g | 0.9 ± 0.5 cm | 0.68 ± 0.36 g | 5.5-6.2 | without any significant effects on the magnitude of tumor growth inhibition | 4/10 | 3.99 ± 0.81 µM | 2.53 ± 0.61 mM | 5.14 ± 0.71 µM | 3.47 ± 0.57 mM | 2.93 ± 0.69 µM | 2.71 ± 0.54 mM | Tumor diameter [1, 15]: 1.3 ± 0.2 cm; Tumor weight [1, 15]: 1.34 ± 0.33 g; Inhibition of tumor growth (% of saline-treated) ([1]; experiment 1, 10 F per group, 0.5 × 10^6 cells, day 15): 31%; Tumor diameter [1, 16]: 1.4 ± 0.2 cm; Tumor weight [1, 16]: 1.30 ± 0.29 g; Inhibition of tumor growth (% of saline-treated) ([1]; experiment 2, 10 M per group, 0.5 × 10^6 cells, day 15): 30%; Plasma ATP levels [3, 14]: 3.01 ± 0.76 µM; Blood ATP levels [3, 14]: 4.26 ± 0.79 mM; Deaths before stated day after tumor inoculation [4]: No deaths occurred before day 19 (A) or day 25 (B,C)
